# Results reported in patent publication US20260217646A1, “SPERMINE DERIVATIVE AND THERAPEUTIC USE THEREOF FOR DISEASES” (Institute of Basic Medical Sciences, Chinese Academy of …, priority 2022, published 2026).
# Key:
# [1] = test system: ISG promoter in RAW264.7 cells; assay: ISG promoter-reporter (luciferase) assay in RAW264.7 cells under mIFN-β stimulation; format: cell-based, mouse; settings: 10 μM SD1 pretreatment 3 hours; mIFN-β 1 ng/ml for 7 hours; luciferase in supernatant (FIG. 1A)
# Procedure: The RAW264.7 cell line with ISG promoter-reporter gene was purchased from Invivogen and cultured in DMEM containing 10% fetal bovine serum (FBS). The cells were pretreated with 10 μM SD1 for 3 hours. A concentrated solution of the above-mentioned SD1 was freshly formulated in DMSO at a concentration of 20 mM before each use, and subsequently diluted as needed. Afterwards, the cells were stimulated with recombinant mouse interferon-beta (mIFN-β) at a dose of 1 ng/ml for 7 hours, and the cell culture supernatant was obtained. Meanwhile, the luciferase substrate powder was dissolved in 25 ml of deionized water under dark conditions, aliquoted, and stored at −80° C. for preparation of the luciferase substrate. 20 μl of the culture supernatant was transferred to a Luciferase specific 96-well ELISA plate, and detected using Thermo VARIOSKAN FLASH microplate-reader (FIG. 1A).
# [2] = test system: interferon-stimulated genes (ISGs) Ifit1 and Mx1; assay: qPCR of interferon-stimulated gene mRNAs in mouse primary peritoneal macrophages after mIFN-β stimulation; format: cell-based; settings: 10 μM SD1 pretreatment 3 hours, mIFN-β 500 μg/ml for 3 hours, qPCR (FIG. 1B)
# Procedure: 2 ml of 3% mercaptoacetate (dissolved in double distilled water at a ratio in % by m/v, and then subjected to high-pressure sterilization treatment) was injected into C57BL/6 mice (6-8 weeks old, male) intraperitoneally. After 3 days, mouse primary peritoneal macrophages (PMs) were isolated from the C57BL/6 mice and cultured in endotoxin-free high-glucose DMEM medium containing 10% FBS.
# The next day, the medium was replaced by fresh complete medium, and the cells were pretreated with 10 μM SD1 for 3 hours. For the control group cells (at a dose of 0), an equal volume of DMSO was added to the medium. Afterwards, the cells were stimulated with mIFN-β (at a dose of 500 μg/ml) for 3 hours, and RNAs were subsequently extracted for reverse transcription. The contents of mRNAs (including Ifit1 and Mx1) of interferon-stimulated genes (ISGs) were detected and analyzed by fluorescence quantitative PCR (qPCR) method using commercial primers and conditions recommended by manufacturers (FIG. 1B).
# [3] = test system: JAK-STAT signaling pathway (IFN-β mediated); assay: Western blot of type I interferon signaling pathway activation in mouse primary peritoneal macrophages stimulated with mIFN-β; format: cell-based; settings: 10 μM SD1 pretreatment 3 hours, mIFN-β 500 μg/ml for different time periods, Western blot (FIG. 2A)
# Procedure: PMs were obtained using the method as described in Example 2 and cultured in endotoxin-free high-glucose DMEM medium containing 10% FBS. The cells were pretreated with 10 μM SD1 for 3 hours. For the control group cells (at a dose of 0), an equal volume of DMSO was added to the medium. Afterwards, the cells were stimulated with mIFN-β (at a dose of 500 μg/ml) for different time periods. Subsequently, total cellular proteins were extracted, and the activation of the type I interferon signaling pathway was detected using Western blot (FIG. 2A).
# [4] = test system: JAK-STAT signaling pathway (IL-2 mediated); assay: Western blot of signaling pathway activation in mouse spleen cells stimulated with IL-2; format: cell-based; settings: 10 μM SD1 pretreatment 3 hours, IL-2 10 ng/ml for different time periods, Western blot (FIG. 2B)
# Procedure: Mouse spleen single cells were isolated from spleens of the male mice 6-8 weeks old, and the cells freshly obtained were cultured in RPMI1640 medium containing 10% FBS, non-essential amino acids, and β-mercaptoethanol. The cells were pretreated with 10 μM SD1 for 3 hours. For the control group cells (at a dose of 0), an equal volume of DMSO was added to the medium. Subsequently, the cells were stimulated with 10 ng/ml recombinant mouse interleukin-2 (IL-2) for different time periods. The cells were collected, total cellular proteins were extracted, and the activation of the type I interferon signaling pathway was detected using Western blot (FIG. 2B).
# [5] = test system: ISG genes in peripheral blood cells of SLE model mice; assay: ISG expression in peripheral blood cells of pristane-induced SLE model mice; format: in vivo, mouse; settings: C57 female mice; SD1 10 mg/kg intraperitoneal once a day for 5 days before pristane; blood on days 4 and 6 (FIG. 3A to 3C)
# Text: Lupus-like symptoms similar to those in human patients were induced in mice by the hydrocarbon compound pristane (also referred as norphytane, 2,6,10,14-tetramethylpentadecane) (Zhuang et al., Animal Models of Interferon Signature Positive Lupus. Front Immunol. 2015. 6: p. 291; Nacionales, D. C et al. (2006). Type I interferon production by tertiary lymphoid tissue developing in response to 2,6,10,14-tetramethyl-pentadecane (pristane). The American journal of pathology 168, 1227-1240; Reeves, W. H et al. (2009). Induction of autoimmunity by pristane and other naturally occurring hydrocarbons. Trends Immunol. 30, 455-464). […] It is a recognized model that is able to simulate the overexpression of type I interferon in SLE patients, which can aid in elucidating the pathogenesis of SLE and finding therapeutic targets.
# Firstly, C57 female mice were pretreated by intraperitoneal injection of PBS and SD1 (10 mg/kg, once a day, for 5 consecutive days). Subsequently, SLE mice were induced by intraperitoneal injection of pristane (500 μl/mouse). On days 4 and 6 after the injection of pristane, blood was collected from the eye-fundus vascular plexus, and total RNA was obtained from the peripheral blood by using Trizol to detect the effect of spermine on the early type I interferon effect of pristane-induced mice.
# [6] = test system: Human T-lymphocytic leukemia Jurkat cells (IL-2 secretion); assay: IL-2 ELISA in PMA/ionomycin-activated Jurkat cells; format: cell-based; settings: 10 μM SD1 pretreatment 3 hours; PMA 50 ng/ml and ionomycin for 24 hours; ELISA (FIG. 4A)
# Procedure: Human T-lymphocytic leukemia Jurkat cells were cultured in RPMI1640 medium containing 10% FBS. The cells were pretreated with SD1 at a dose of 10 μM for 3 hours. For the control group cells (at a dose of 0), an equal volume of DMSO was added to the medium. Subsequently, the cells were continued to be stimulated with phorbol ester (PMA, 50 ng/ml) and ionomycin ([…]) for 24 hours. The cell culture supernatant was collected, and the level of IL-2 was detected using enzyme linked immunosorbent assay (ELISA) (FIG. 4A).
# NFAT = assay: Jurkat-Lucia NFAT reporter gene assay; format: cell-based, human; settings: Jurkat-Lucia NFAT cells; 10 μM SD1 pretreatment 3 hours; PMA 50 ng/ml and ionomycin 300 ng/ml for 24 hours (FIG. 4B)
# Procedure: Jurkat-Lucia NFAT reporter cell line was purchased from invivogen and cultured in RPMI1640 medium containing 10% FBS. The cells were pretreated with 10 μM SD1 for 3 hours. For the control group cells (at a dose of 0), an equal volume of DMSO was added to the medium. Subsequently, PMA (50 ng/ml) and ionomycin (300 ng/ml) were used to stimulate for 24 hours. The cell culture supernatant was obtained. Meanwhile, the luciferase substrate powder was dissolved in 25 ml of deionized water under dark conditions, aliquoted and stored at −80° C. for the preparation of the luciferase substrate. 20 μl of the culture supernatant was transferred to a Luciferase specific 96-well ELISA plate, and detected using Thermo VARIOSKAN FLASH microplate-reader (FIG. 4B).
smiles,measurement,setting,value
CC(C(=O)NCCCNCCCCNCCCNC(=O)C(C)(c1ccccc1)c1ccccc1)(c1ccccc1)c1ccccc1 [SD1],activity of ISG promoter in RAW264.7 cells,[1],effectively inhibit
same,expression of Ifit1 mRNA downstream of type I interferon,[2],reduce
same,expression of Mx1 mRNA downstream of type I interferon,[2],reduce
same,"activation of the JAK-STAT signaling pathway mediated by IFN-β (levels of p-JAK1, p-TYK2, p-STAT1/2)",[3],effectively inhibit
same,"activation of the JAK-STAT signaling pathway mediated by IL-2 (levels of p-JAK1, p-TYK2, p-STAT1/2)",[4],effectively inhibit
same,"ISG expression (Ifit1, Isg15, Rsad2) in peripheral blood cells of SLE model mice",[5],inhibit
same,IL-2 secretion level of activated Jurkat cells,[6],effectively inhibit
same,transcriptional activity of NFAT (reporter gene activity),NFAT,effectively inhibits
